Experimental data published in ChEMBL document CHEMBL1201862, “PubChem BioAssay data set” (2004).
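Five concentrations, 48 hours, 96-well plates. GI50 is the concentration that inhibits growth by half.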 Active and inactive are the calls of the source. Rule as the data show it: active = GI50 up to about 1.1 µM and inactive = higher.

What was measured:
Assay in all cases: inhibition of tumour cell growth, NCI panel, 48 h
786-0 = tested on: 786-0
A498 = tested on: A498
CAKI-1 = tested on: CAKI-1
COLO 205 = tested on: COLO 205
HOP-62 = tested on: HOP-62
HT-29 = tested on: HT-29
KM12 = tested on: KM12
LOX IMVI = tested on: LOX IMVI
MCF7 = tested on: MCF7
MDA-N = tested on: MDA-N
NCI-H23 = tested on: NCI-H23
NCI-H460 = tested on: NCI-H460
OVCAR-5 = tested on: OVCAR-5
SF-268 = tested on: SF-268
SF-295 = tested on: SF-295
SN12C = tested on: SN12C
SNB-19 = tested on: SNB-19
SR = tested on: SR
SW-620 = tested on: SW-620
UACC-257 = tested on: UACC-257

Structure (SMILES) | GI50 (786-0) | GI50 (A498) | GI50 (CAKI-1) | GI50 (COLO 205) | GI50 (HOP-62) | GI50 (HT-29) | GI50 (KM12) | GI50 (LOX IMVI) | GI50 (MCF7) | GI50 (MDA-N) | GI50 (NCI-H23) | GI50 (NCI-H460) | GI50 (OVCAR-5) | GI50 (SF-268) | GI50 (SF-295) | GI50 (SN12C) | GI50 (SNB-19) | GI50 (SR) | GI50 (SW-620) | GI50 (UACC-257)
CCOC(=O)c1cc2c([nH]1)c(OC(C)=O)cc1c2ccn1Cc1ccccc1 | > 100 µM (inactive) | > 100 µM (inactive) | > 100 µM (inactive) | > 100 µM (inactive) | > 100 µM (inactive) | > 100 µM (inactive) | > 100 µM (inactive) | > 100 µM (inactive) | > 100 µM (inactive) | > 100 µM (inactive) | > 100 µM (inactive) | > 100 µM (inactive) | > 100 µM (inactive) | > 100 µM (inactive) | > 100 µM (inactive) | > 100 µM (inactive) | > 100 µM (inactive) | > 100 µM (inactive) | > 100 µM (inactive) | > 100 µM (inactive)
C=C1C[C@@H](O)[C@@H](Br)C(C)(C)[C@@]12C=CC(=O)CC2 | > 100 µM (inactive) | > 100 µM (inactive) | > 100 µM (inactive) | 1.77 µM (inactive) | > 100 µM (inactive) | > 100 µM (inactive) | 1.52 µM (inactive) | > 100 µM (inactive) | > 100 µM (inactive) | > 100 µM (inactive) | > 100 µM (inactive) | > 100 µM (inactive) | 3.18 µM (inactive) | > 100 µM (inactive) | > 100 µM (inactive) | > 100 µM (inactive) | > 100 µM (inactive) | > 100 µM (inactive) | > 100 µM (inactive) | > 100 µM (inactive)
CCCCCCCCCCCCCCCCCCN(C)C(COC)COP(=O)([O-])OCC[N+](C)(C)C (stereo not given) | 1.74 µM (inactive) | 7.38 µM (inactive) | 3.69 µM (inactive) | 1.58 µM (inactive) | 3.09 µM (inactive) | 2.94 µM (inactive) | 1.66 µM (inactive) | 4.49 µM (inactive) | 10.1 µM (inactive) | 15.6 µM (inactive) | 8.45 µM (inactive) | 1.78 µM (inactive) | 2.34 µM (inactive) | 3.24 µM (inactive) | 2.56 µM (inactive) | 4.23 µM (inactive) | 3.61 µM (inactive) | 2.23 µM (inactive) | 6.47 µM (inactive) | 14.6 µM (inactive)
Nc1c(C(=O)O)nnc2cc(Cl)c(Cl)cc12 | > 100 µM (inactive) | 91 µM (inactive) | > 100 µM (inactive) | > 100 µM (inactive) | > 100 µM (inactive) | > 100 µM (inactive) | > 100 µM (inactive) | 82 µM (inactive) | > 100 µM (inactive) | > 100 µM (inactive) | > 100 µM (inactive) | > 100 µM (inactive) | > 100 µM (inactive) | > 100 µM (inactive) | > 100 µM (inactive) | > 100 µM (inactive) | > 100 µM (inactive) | > 100 µM (inactive) | > 100 µM (inactive) | > 100 µM (inactive)
O=C1/C(=C/c2cccnc2)SC(=S)N1Cc1ccco1 | 3.29 µM (inactive) | 24.7 µM (inactive) | 9.59 µM (inactive) | 6.15 µM (inactive) | 5.77 µM (inactive) | 4.01 µM (inactive) | 3.13 µM (inactive) | 4.16 µM (inactive) | 3.28 µM (inactive) | 2.33 µM (inactive) | 4.72 µM (inactive) | 6.37 µM (inactive) | 36.1 µM (inactive) | 5.94 µM (inactive) | 35.7 µM (inactive) | 4.47 µM (inactive) | 32 µM (inactive) | 1.44 µM (inactive) | 3.84 µM (inactive) | 4.92 µM (inactive)
O=c1c(-c2c(-c3ccccc3)oc3ccc(Cl)cc3c2=O)c(-c2ccccc2)oc2ccc(Cl)cc12 | > 100 µM (inactive) | > 100 µM (inactive) | > 100 µM (inactive) | > 100 µM (inactive) | > 39.7 µM (inactive) | > 100 µM (inactive) | > 100 µM (inactive) | > 82.4 µM (inactive) | > 100 µM (inactive) | > 100 µM (inactive) | > 100 µM (inactive) | > 94.8 µM (inactive) | > 100 µM (inactive) | > 49.9 µM (inactive) | > 51.8 µM (inactive) | > 100 µM (inactive) | > 100 µM (inactive) | > 100 µM (inactive) | > 100 µM (inactive) | > 100 µM (inactive)
Cc1ccc(C2=C(Cl)C(=O)C(c3ccc(C)cc3)=C(Cl)C2=O)cc1 | > 100 µM (inactive) | > 100 µM (inactive) | > 100 µM (inactive) | > 100 µM (inactive) | > 100 µM (inactive) | > 100 µM (inactive) | > 100 µM (inactive) | > 100 µM (inactive) | > 100 µM (inactive) | > 100 µM (inactive) | > 100 µM (inactive) | > 100 µM (inactive) | > 100 µM (inactive) | > 100 µM (inactive) | > 100 µM (inactive) | > 100 µM (inactive) | > 100 µM (inactive) | > 100 µM (inactive) | > 100 µM (inactive) | > 100 µM (inactive)
O=C1C(N2CCN(c3ccccn3)CC2)=C(Cl)C(=O)c2ncccc21 | 1.78 µM (inactive) | 5.07 µM (inactive) | 0.433 µM (active) | 1.96 µM (inactive) | > 10 µM (inactive) | 2.88 µM (inactive) | > 4.33 µM (inactive) | 2.22 µM (inactive) | 1.76 µM (inactive) | 1.66 µM (inactive) | 1.85 µM (inactive) | > 10 µM (inactive) | > 10 µM (inactive) | > 6.1 µM (inactive) | > 10 µM (inactive) | 1.66 µM (inactive) | > 10 µM (inactive) | 2.28 µM (inactive) | 1.23 µM (inactive) | 2.96 µM (inactive)
COc1ccc(N2C(=O)C3c4[nH]c5cccc(Cl)c5c4C4CCC(C(C)(C)C)CC4C3C2=O)cc1 (stereo not given) | 31.6 µM (inactive) | 74.1 µM (inactive) | > 100 µM (inactive) | > 100 µM (inactive) | 16.3 µM (inactive) | > 100 µM (inactive) | > 100 µM (inactive) | > 100 µM (inactive) | > 100 µM (inactive) | > 100 µM (inactive) | > 100 µM (inactive) | > 100 µM (inactive) | > 100 µM (inactive) | 50.6 µM (inactive) | 47.2 µM (inactive) | > 100 µM (inactive) | 41.5 µM (inactive) | 8.47 µM (inactive) | > 100 µM (inactive) | > 100 µM (inactive)
Cn1cc2c3ccccc3nc-2c2ccccc21 [ISOCRYPTOLEPINE] | 2.1 µM (inactive) | 1.74 µM (inactive) | 2.32 µM (inactive) | 1.46 µM (inactive) | 1.59 µM (inactive) | 1.29 µM (inactive) | 2.08 µM (inactive) | 1.77 µM (inactive) | 2.67 µM (inactive) | 2.04 µM (inactive) | 1.51 µM (inactive) | 1.44 µM (inactive) | 2.14 µM (inactive) | 2.33 µM (inactive) | 2.78 µM (inactive) | 1.57 µM (inactive) | 2.96 µM (inactive) | 0.397 µM (active) | 1.12 µM (inactive) | 2.31 µM (inactive)
COC(=O)c1cc(NC(=O)Cc2c[nH]c3ccccc23)cn1C | > 100 µM (inactive) | > 100 µM (inactive) | > 100 µM (inactive) | 82 µM (inactive) | 88.1 µM (inactive) | 65.9 µM (inactive) | > 100 µM (inactive) | 58.3 µM (inactive) | 60.8 µM (inactive) | > 100 µM (inactive) | > 100 µM (inactive) | 70.5 µM (inactive) | > 100 µM (inactive) | 88.5 µM (inactive) | > 100 µM (inactive) | 42.9 µM (inactive) | 70 µM (inactive) | 39.4 µM (inactive) | > 100 µM (inactive) | > 100 µM (inactive)
COc1cc2c(c3oc4c(O)cccc4c(=O)c13)CC(C(C)(O)CCl)O2 (stereo not given) | 0.889 µM (active) | 15.1 µM (inactive) | 1.16 µM (inactive) | 0.373 µM (active) | 0.733 µM (active) | 0.0476 µM (active) | 1.29 µM (inactive) | < 0.01 µM (active) | 0.0254 µM (active) | 0.51 µM (active) | 0.512 µM (active) | 2.64 µM (inactive) | 6.34 µM (inactive) | 0.0728 µM (active) | 1.92 µM (inactive) | 0.209 µM (active) | 4.85 µM (inactive) | < 0.0338 µM (active) | 0.0277 µM (active) | 1.98 µM (inactive)
CC1(C)N=C(N)N=C(N)N1c1cccc(OCCOc2ccc([N+](=O)[O-])cc2)c1 | 4.99 µM (inactive) | > 100 µM (inactive) | > 100 µM (inactive) | 37.4 µM (inactive) | > 100 µM (inactive) | 8.24 µM (inactive) | 11.5 µM (inactive) | 8.97 µM (inactive) | 16 µM (inactive) | 5.26 µM (inactive) | 4.9 µM (inactive) | 7.53 µM (inactive) | > 100 µM (inactive) | 5.04 µM (inactive) | > 100 µM (inactive) | 6.49 µM (inactive) | 37.8 µM (inactive) | 0.238 µM (active) | 3.68 µM (inactive) | 57.7 µM (inactive)
CSC12c3cc(C)n(-c4ccc(I)cc4)c3CC(C)(C)CN1C(=O)C2Oc1ccccc1 (stereo not given) | > 100 µM (inactive) | 97.5 µM (inactive) | > 100 µM (inactive) | > 100 µM (inactive) | > 100 µM (inactive) | > 100 µM (inactive) | > 100 µM (inactive) | > 100 µM (inactive) | 14.1 µM (inactive) | > 100 µM (inactive) | > 100 µM (inactive) | > 100 µM (inactive) | > 100 µM (inactive) | > 100 µM (inactive) | > 100 µM (inactive) | > 100 µM (inactive) | > 100 µM (inactive) | > 91.2 µM (inactive) | > 100 µM (inactive) | > 66.5 µM (inactive)
